In patent US20070281992A1, “COMBINATION OF GYRASE B INHIBITORS AND PROTEIN SYNTHESIS INHIBITORS AND USES THEREOF” (priority 2006, published 2007):
Read-outs that look alike come from different tables or passages of the source.

Legend:
Assay type in all cases: cell-based
[1] = tested on: Methicillin-Susceptible Staphylococcus aureus Isolates; experiment: MIC assay (NCCLS broth dilution), MSSA clinical isolates; conditions: for MIC: read-out: Minimal Inhibitory Concentration
Method: (§1) Antibiotics: novobiocin, tetracycline, minocycline, oxacillin, and vancomycin were all purchased from Sigma-Aldrich. Linezolid was obtained from Pfizer, Inc. Novobiocin/tetracycline and novobiocin/minocycline were tested in a 2.5:1 ratio to mimic the serum levels. (Vavra, J. J., 1967, Development of resistance to novobiocin, tetracycline, and novobiocin-tetracycline combinations in Staphylococcus aureus populations, J. Bacteriol 93(3):801). Compounds were tested across a concentration range consisting of 11 two-fold serial dilutions of test agent.
(§2) Stock solutions were prepared in sterile deionized water; novobiocin stock concentration was 1600 μg/mL and all other drugs stock solutions were prepared at 640 μg/mL. The stock solutions were allowed to sit at room temperature for one hour to auto-sterilize prior to use in the test. All compounds were in solution in water. The control agent was vancomycin hydrochloride, Sigma Chemical Lot # 015K0825.
(§3) The test organisms for the assay were 52 MSSA, 52 MRSA, 8 VISA, 7 VISE, and 3 LRSA isolates. Quality control strains included Staphylococcus aureus 0100 (ATCC 29213) and Enterococcus faecalis (ATCC 29212).
(§4) The MIC assay was performed according to published NCCLS guidelines. (National Committee for Clinical Laboratory Standards, Methods for Dilution Antimicrobial Susceptibility Tests for Bacteria that Grow Aerobically; Approved Standard-Sixth Edition, NCCLS Document M7-A6 [ISBN 1-56238-486-4], NCCLS, 940 West Valley Road, Suite 1400, Wayne, Pa. 19087-1898 USA, 2003). The test medium was Mueller Hinton II Broth for all organisms.

[2] = tested on: Vancomycin-intermediate Staphylococcus aureus Isolates; experiment: MIC assay (NCCLS broth dilution), VISA isolates; conditions: for MIC: read-out: Minimal Inhibitory Concentration
Method: as §1, §2, §3, §4

[3] = tested on: Unconfirmed Vancomycin-intermediate Staphylococcus aureus Isolates; experiment: MIC assay (NCCLS broth dilution), unconfirmed VISA isolates; conditions: for MIC: read-out: Minimal Inhibitory Concentration
Method: as §1, §2, §3, §4

[4] = tested on: Unconfirmed Vancomycin-intermediate Staphylococcus epidermidis Isolates; experiment: MIC assay (NCCLS broth dilution), unconfirmed VISE isolates; conditions: for MIC: read-out: Minimal Inhibitory Concentration
Method: as §1, §2, §3, §4

[5] = tested on: Linezolid-Resistant Staphylococcus aureus Isolates; experiment: MIC assay (NCCLS broth dilution), LRSA isolates; conditions: Staphylococcus aureus; for MIC: read-out: Minimal Inhibitory Concentration
Method: as §1, §2, §3, §4

[6] = tested on: Enterococcus faecalis (ATCC 29212); experiment: MIC assay, quality control strain E. faecalis ATCC 29212; conditions: ATCC29212, E. faecalis ATCC 29212, repeat runs 22FEB06-09MAR06, combinations at 2.5:1, read-out: Minimal Inhibitory Concentration, quality control
Method: as §1, §2, §3, §4

[7] = Staphylococcus aureus, 52 MSSA isolates, combinations at 2.5:1, given as NB/partner

With `CC(=O)NC[C@H]1CN(c2ccc(N3CCOCC3)c(F)c2)C(=O)O1` [LZD, linezolid] the “MIC Range” value ([1]; 52 MSSA isolates, Mueller Hinton II Broth, combinations at 2.5:1, given as NB/partner) was 1 to 4 µg/mL, the MIC ([1]; Staphylococcus aureus, MSSA isolate 133, 03MAR06) was 2 µg/mL and the MIC ([1]; Staphylococcus aureus, MSSA isolate 134, 03MAR06) was 2 µg/mL. The MIC ([1]; Staphylococcus aureus, MSSA isolate 135, 03MAR06) was 4 µg/mL, the MIC ([1]; Staphylococcus aureus, MSSA isolate 753, 22FEB06) was 2 µg/mL and the MIC ([1]; Staphylococcus aureus, MSSA isolate 754, 22FEB06) was 4 µg/mL. For the same compound, the MIC ([1]; Staphylococcus aureus, MSSA isolate 754, 24FEB06) was 4 µg/mL, the MIC ([1]; Staphylococcus aureus, MSSA isolate 755, 22FEB06) was 2 µg/mL and the MIC ([1]; Staphylococcus aureus, MSSA isolate 756, 03MAR06) was 2 µg/mL. The MIC ([1]; Staphylococcus aureus, MSSA isolate 779, 22FEB06) was 2 µg/mL, the MIC ([1]; Staphylococcus aureus, MSSA isolate 780, 03MAR06) was 4 µg/mL and the MIC ([1]; Staphylococcus aureus, MSSA isolate 781, 03MAR06) was 2 µg/mL. It also gave an MIC ([1]; Staphylococcus aureus, MSSA isolate 782, 22FEB06) of 2 µg/mL, an MIC ([1]; Staphylococcus aureus, MSSA isolate 783, 22FEB06) of 2 µg/mL and an MIC ([1]; Staphylococcus aureus, MSSA isolate 784, 22FEB06) of 2 µg/mL. For the same compound, the MIC ([1]; Staphylococcus aureus, MSSA isolate 785, 22FEB06) was 2 µg/mL, the MIC ([1]; Staphylococcus aureus, MSSA isolate 786, 22FEB06) was 4 µg/mL and the MIC ([1]; Staphylococcus aureus, MSSA isolate 787, 22FEB06) was 2 µg/mL. For the same compound, the MIC ([1]; Staphylococcus aureus, MSSA isolate 788, 22FEB06) was 2 µg/mL, the MIC ([1]; Staphylococcus aureus, MSSA isolate 789, 24FEB06) was 4 µg/mL and the MIC ([1]; Staphylococcus aureus, MSSA isolate 790, 24FEB06) was 4 µg/mL. For the same compound, the MIC ([1]; Staphylococcus aureus, MSSA isolate 791, 24FEB06) was 2 µg/mL, the MIC ([1]; Staphylococcus aureus, MSSA isolate 792, 03MAR06) was 2 µg/mL and the MIC ([1]; Staphylococcus aureus, MSSA isolate 793, 24FEB06) was 4 µg/mL. The MIC ([1]; Staphylococcus aureus, MSSA isolate 794, 24FEB06) was 4 µg/mL, the MIC ([1]; Staphylococcus aureus, MSSA isolate 994, 22FEB06) was 2 µg/mL and the MIC ([1]; Staphylococcus aureus, MSSA isolate 995, 03MAR06) was 2 µg/mL. For the same compound, the MIC ([1]; Staphylococcus aureus, MSSA isolate 996, 22FEB06) was 2 µg/mL, the MIC ([1]; Staphylococcus aureus, MSSA isolate 997, 22FEB06) was 2 µg/mL and the MIC ([1]; Staphylococcus aureus, MSSA isolate 998, 03MAR06) was 2 µg/mL. It also gave an MIC ([1]; Staphylococcus aureus, MSSA isolate 999, 22FEB06) of 2 µg/mL, an MIC ([1]; Staphylococcus aureus, MSSA isolate 1000, 24FEB06) of 2 µg/mL and an MIC ([1]; Staphylococcus aureus, MSSA isolate 1001, 24FEB06) of 2 µg/mL. It also gave an MIC ([1]; Staphylococcus aureus, MSSA isolate 1002, 24FEB06) of 2 µg/mL, an MIC ([1]; Staphylococcus aureus, MSSA isolate 1003, 03MAR06) of 2 µg/mL and an MIC ([1]; Staphylococcus aureus, MSSA isolate 1005, 24FEB06) of 2 µg/mL. The MIC ([1]; Staphylococcus aureus, MSSA isolate 1006, 24FEB06) was 2 µg/mL, the MIC ([1]; Staphylococcus aureus, MSSA isolate 1007, 24FEB06) was 4 µg/mL and the MIC ([1]; Staphylococcus aureus, MSSA isolate 1008, 24FEB06) was 2 µg/mL. It also gave an MIC ([1]; Staphylococcus aureus, MSSA isolate 1009, 24FEB06) of 4 µg/mL, an MIC ([1]; Staphylococcus aureus, MSSA isolate 1131, 24FEB06) of 2 µg/mL and an MIC ([1]; Staphylococcus aureus, MSSA isolate 1132, 03MAR06) of 2 µg/mL. It also gave an MIC ([1]; Staphylococcus aureus, MSSA isolate 1133, 24FEB06) of 2 µg/mL, an MIC ([1]; Staphylococcus aureus, MSSA isolate 1134, 24FEB06) of 2 µg/mL and an MIC ([1]; Staphylococcus aureus, MSSA isolate 1654, 03MAR06) of 2 µg/mL. The MIC ([1]; Staphylococcus aureus, MSSA isolate 1656, 03MAR06) was 2 µg/mL, the MIC ([1]; Staphylococcus aureus, MSSA isolate 1662, 03MAR06) was 2 µg/mL and the MIC ([1]; Staphylococcus aureus, MSSA isolate 1663, 03MAR06) was 4 µg/mL. It also gave an MIC ([1]; Staphylococcus aureus, MSSA isolate 1666, 03MAR06) of 4 µg/mL, an MIC ([1]; Staphylococcus aureus, MSSA isolate 1667, 03MAR06) of 4 µg/mL and an MIC ([1]; Staphylococcus aureus, MSSA isolate 1668, 03MAR06) of 4 µg/mL. It also gave an MIC ([1]; Staphylococcus aureus, MSSA isolate 1671, 03MAR06) of 2 µg/mL, an MIC ([1]; Staphylococcus aureus, MSSA isolate 1728, 03MAR06) of 1 µg/mL and an MIC ([1]; Staphylococcus aureus, MSSA isolate 1728, retest 09MAR06) of 1 µg/mL. The MIC50 [1, 7] was 2 µg/mL, the MIC90 [1, 7] was 4 µg/mL and the “MIC Range” value ([2]; 2 VISA isolates, combinations at 2.5:1, given as NB/partner) was 1 to 2 µg/mL. For the same compound, the MIC ([2]; Staphylococcus aureus, VISA isolate 2012, 03MAR06) was 1 µg/mL, the MIC ([2]; Staphylococcus aureus, VISA isolate 2018, 03MAR06) was 2 µg/mL and the MIC50 ([2]; Staphylococcus aureus, 2 VISA isolates, combinations at 2.5:1, given as NB/partner) was 1 µg/mL. The “MIC Range” value ([3]; 6 unconfirmed VISA isolates (vancomycin MIC 4 ug/ml), combinations at 2.5:1) was 1 to 4 µg/mL, the MIC ([3]; Staphylococcus aureus, Unconfirmed VISA isolate 2013, 03MAR06) was 2 µg/mL and the MIC ([3]; Staphylococcus aureus, Unconfirmed VISA isolate 2014, 03MAR06) was 2 µg/mL. It also gave an MIC ([3]; Staphylococcus aureus, Unconfirmed VISA isolate 2015, 03MAR06) of 1 µg/mL, an MIC ([3]; Staphylococcus aureus, Unconfirmed VISA isolate 2016, 03MAR06) of 4 µg/mL and an MIC ([3]; Staphylococcus aureus, Unconfirmed VISA isolate 2017, 03MAR06) of 2 µg/mL. For the same compound, the MIC ([3]; Staphylococcus aureus, Unconfirmed VISA isolate 2019, 03MAR06) was 1 µg/mL, the MIC50 ([3]; Staphylococcus aureus, 6 unconfirmed VISA isolates (vancomycin MIC 4 ug/ml), combinations at 2.5:1) was 2 µg/mL and the “MIC Range” value ([4]; 3 unconfirmed VISE isolates, combinations at 2.5:1) was 1 to 2 µg/mL. For the same compound, the MIC ([4]; Staphylococcus epidermidis, Unconfirmed VISE isolate 2024, 09MAR06) was 1 µg/mL, the MIC ([4]; Staphylococcus epidermidis, Unconfirmed VISE isolate 2025, 09MAR06) was 1 µg/mL and the MIC ([4]; Staphylococcus epidermidis, Unconfirmed VISE isolate 2026, 03MAR06) was 2 µg/mL. It also gave an MIC50 ([4]; Staphylococcus epidermidis, 3 unconfirmed VISE isolates, combinations at 2.5:1) of 1 µg/mL, an MIC ([5]; LRSA isolate 1651, 24FEB06) of 16 µg/mL and an MIC ([5]; LRSA isolate 1652, 24FEB06) of 32 µg/mL. It also gave an MIC ([5]; LRSA isolate 1725, 24FEB06) of 32 µg/mL, an MIC50 ([5]; 3 LRSA isolates, combinations at 2.5:1) of 32 µg/mL and an MIC [6] of 2 µg/mL.
